{"source": "PubChem BioAssay AID1745844", "about": "(Carcinogenic Potency Database (CPDB), 2022)", "test_system": "rodent lifetime carcinogenesis bioassay, tumor incidence TD50", "assay": "carcinogenic potency in animals, long-term in vivo studies, CPDB compilation (AID 1745844)", "conditions": "in feed", "data": [{"smiles": "Nc1c(Br)cc(Br)c2c1C(=O)c1ccccc1C2=O", "values": [{"measurement": "TD50", "setting": "mouse, strain B6C3F1, females, site: any site (literature study), lesion: several types, types named in the paper, dosed 104 weeks, study length 104 weeks", "result": 1030, "unit": "mg/kg/day"}, {"measurement": "TD50", "setting": "mouse, strain B6C3F1, females, site: forestomach + liver + lung, lesion: squamous-cell carcinoma + squamous-cell papilloma + hepatocellular adenoma + hepatocellular carcinoma + alveolar/bronchiolar ade, dosed 104 weeks, study length 104 weeks", "result": 546, "unit": "mg/kg/day"}, {"measurement": "TD50", "setting": "mouse, strain B6C3F1, females, site: forestomach, lesion: squamous-cell carcinoma + squamous-cell papilloma, dosed 104 weeks, study length 104 weeks", "result": 1230, "unit": "mg/kg/day"}, {"measurement": "TD50", "setting": "mouse, strain B6C3F1, females, site: forestomach, lesion: squamous-cell carcinoma, dosed 104 weeks, study length 104 weeks", "result": 3930, "unit": "mg/kg/day"}, {"measurement": "TD50", "setting": "mouse, strain B6C3F1, females, site: forestomach, lesion: squamous-cell papilloma, dosed 104 weeks, study length 104 weeks", "result": 1760, "unit": "mg/kg/day"}, {"measurement": "TD50", "setting": "mouse, strain B6C3F1, females, site: liver, lesion: hepatocellular adenoma + hepatoblastoma + hepatocellular carcinoma, dosed 104 weeks, study length 104 weeks", "result": 490, "unit": "mg/kg/day"}, {"measurement": "TD50", "setting": "mouse, strain B6C3F1, females, site: liver, lesion: hepatocellular adenoma + hepatocellular carcinoma, dosed 104 weeks, study length 104 weeks", "result": 490, "unit": "mg/kg/day"}, {"measurement": "TD50", "setting": "mouse, strain B6C3F1, females, site: liver, lesion: hepatocellular adenoma, dosed 104 weeks, study length 104 weeks", "result": 515, "unit": "mg/kg/day"}, {"measurement": "TD50", "setting": "mouse, strain B6C3F1, females, site: liver, lesion: hepatocellular carcinoma, dosed 104 weeks, study length 104 weeks", "result": 1530, "unit": "mg/kg/day"}, {"measurement": "TD50", "setting": "mouse, strain B6C3F1, females, site: lung, lesion: alveolar/bronchiolar adenoma + alveolar/bronchiolar carcinoma, dosed 104 weeks, study length 104 weeks", "result": 1990, "unit": "mg/kg/day"}, {"measurement": "TD50", "setting": "mouse, strain B6C3F1, females, site: lung, lesion: alveolar/bronchiolar adenoma, dosed 104 weeks, study length 104 weeks", "result": 1990, "unit": "mg/kg/day"}, {"measurement": "TD50", "setting": "mouse, strain B6C3F1, females, site: pituitary gland, lesion: pars distalis adenoma, dosed 104 weeks, study length 104 weeks", "result": 3750, "unit": "mg/kg/day"}, {"measurement": "TD50", "setting": "mouse, strain B6C3F1, females, site: uterus, lesion: endometrial stromal polyp + endometrial stromal sarcoma, dosed 104 weeks, study length 104 weeks", "result": 6820, "unit": "mg/kg/day"}, {"measurement": "TD50", "setting": "mouse, strain B6C3F1, males, site: any site (literature study), lesion: several types, types named in the paper, dosed 103 weeks, study length 104 weeks", "result": 566, "unit": "mg/kg/day"}, {"measurement": "TD50", "setting": "mouse, strain B6C3F1, males, site: forestomach + liver + lung, lesion: squamous-cell carcinoma + squamous-cell papilloma + hepatocellular adenoma + hepatoblastoma + hepatocellular carcinoma + alveolar/, dosed 103 weeks, study length 104 weeks", "result": 465, "unit": "mg/kg/day"}, {"measurement": "TD50", "setting": "mouse, strain B6C3F1, males, site: forestomach, lesion: squamous-cell carcinoma + squamous-cell papilloma, dosed 103 weeks, study length 104 weeks", "result": 1130, "unit": "mg/kg/day"}, {"measurement": "TD50", "setting": "mouse, strain B6C3F1, males, site: forestomach, lesion: squamous-cell carcinoma, dosed 103 weeks, study length 104 weeks", "result": 2730, "unit": "mg/kg/day"}, {"measurement": "TD50", "setting": "mouse, strain B6C3F1, males, site: forestomach, lesion: squamous-cell papilloma, dosed 103 weeks, study length 104 weeks", "result": 1680, "unit": "mg/kg/day"}, {"measurement": "TD50", "setting": "mouse, strain B6C3F1, males, site: liver, lesion: hepatoblastoma + hepatocellular carcinoma, dosed 103 weeks, study length 104 weeks", "result": 1870, "unit": "mg/kg/day"}, {"measurement": "TD50", "setting": "mouse, strain B6C3F1, males, site: liver, lesion: hepatoblastoma, dosed 103 weeks, study length 104 weeks", "result": 9250, "unit": "mg/kg/day"}, {"measurement": "TD50", "setting": "mouse, strain B6C3F1, males, site: liver, lesion: hepatocellular adenoma + hepatoblastoma + hepatocellular carcinoma, dosed 103 weeks, study length 104 weeks", "result": 467, "unit": "mg/kg/day"}, {"measurement": "TD50", "setting": "mouse, strain B6C3F1, males, site: liver, lesion: hepatocellular adenoma + hepatocellular carcinoma, dosed 103 weeks, study length 104 weeks", "result": 467, "unit": "mg/kg/day"}, {"measurement": "TD50", "setting": "mouse, strain B6C3F1, males, site: liver, lesion: hepatocellular adenoma, dosed 103 weeks, study length 104 weeks", "result": 464, "unit": "mg/kg/day"}, {"measurement": "TD50", "setting": "mouse, strain B6C3F1, males, site: liver, lesion: hepatocellular carcinoma, dosed 103 weeks, study length 104 weeks", "result": 2240, "unit": "mg/kg/day"}, {"measurement": "TD50", "setting": "mouse, strain B6C3F1, males, site: lung, lesion: alveolar/bronchiolar adenoma + alveolar/bronchiolar carcinoma, dosed 103 weeks, study length 104 weeks", "result": 817, "unit": "mg/kg/day"}, {"measurement": "TD50", "setting": "mouse, strain B6C3F1, males, site: lung, lesion: alveolar/bronchiolar adenoma, dosed 103 weeks, study length 104 weeks", "result": 831, "unit": "mg/kg/day"}, {"measurement": "TD50", "setting": "rat, strain Fischer 344, females, site: any site (literature study), lesion: several types, types named in the paper, dosed 40 weeks, study length 66 weeks", "result": 135, "unit": "mg/kg/day"}, {"measurement": "TD50", "setting": "rat, strain Fischer 344, females, site: any site (literature study), lesion: several types, types named in the paper, dosed 66 weeks, study length 66 weeks", "result": 147, "unit": "mg/kg/day"}, {"measurement": "TD50", "setting": "rat, strain Fischer 344, females, site: any site (literature study), lesion: several types, types named in the paper, dosed 103 weeks, study length 104 weeks", "result": 160, "unit": "mg/kg/day"}, {"measurement": "TD50", "setting": "rat, strain Fischer 344, females, site: cecum + colon + kidney + liver + rectum + urinary bladder, lesion: polypoid adenoma + adenocarcinoma + tubule adenoma + tubule carcinoma + hepatocholangiocarcinoma + hepatocellular adenoma + hepatoce, dosed 103 weeks, study length 104 weeks", "result": 31, "unit": "mg/kg/day"}, {"measurement": "TD50", "setting": "rat, strain Fischer 344, females, site: cecum + colon + rectum, lesion: polypoid adenoma, dosed 40 weeks, study length 66 weeks", "result": 217, "unit": "mg/kg/day"}, {"measurement": "TD50", "setting": "rat, strain Fischer 344, females, site: cecum + colon + rectum, lesion: polypoid adenoma, dosed 66 weeks, study length 66 weeks", "result": 1270, "unit": "mg/kg/day"}, {"measurement": "TD50", "setting": "rat, strain Fischer 344, females, site: cecum + colon + rectum, lesion: polypoid adenoma, dosed 103 weeks, study length 104 weeks", "result": 72.9, "unit": "mg/kg/day"}, {"measurement": "TD50", "setting": "rat, strain Fischer 344, females, site: colon + rectum, lesion: adenocarcinoma, dosed 103 weeks, study length 104 weeks", "result": 414, "unit": "mg/kg/day"}, {"measurement": "TD50", "setting": "rat, strain Fischer 344, females, site: kidney, lesion: tubule adenoma + tubule carcinoma, dosed 40 weeks, study length 66 weeks", "result": 418, "unit": "mg/kg/day"}, {"measurement": "TD50", "setting": "rat, strain Fischer 344, females, site: kidney, lesion: tubule adenoma + tubule carcinoma, dosed 66 weeks, study length 66 weeks", "result": 1520, "unit": "mg/kg/day"}, {"measurement": "TD50", "setting": "rat, strain Fischer 344, females, site: kidney, lesion: tubule adenoma + tubule carcinoma, dosed 103 weeks, study length 104 weeks", "result": 388, "unit": "mg/kg/day"}, {"measurement": "TD50", "setting": "rat, strain Fischer 344, females, site: kidney, lesion: tubule adenoma, dosed 40 weeks, study length 66 weeks", "result": 418, "unit": "mg/kg/day"}, {"measurement": "TD50", "setting": "rat, strain Fischer 344, females, site: kidney, lesion: tubule adenoma, dosed 66 weeks, study length 66 weeks", "result": 1520, "unit": "mg/kg/day"}, {"measurement": "TD50", "setting": "rat, strain Fischer 344, females, site: kidney, lesion: tubule adenoma, dosed 103 weeks, study length 104 weeks", "result": 388, "unit": "mg/kg/day"}, {"measurement": "TD50", "setting": "rat, strain Fischer 344, females, site: liver, lesion: hepatocellular adenoma + hepatoblastoma + hepatocellular carcinoma, dosed 40 weeks, study length 66 weeks", "result": 121, "unit": "mg/kg/day"}, {"measurement": "TD50", "setting": "rat, strain Fischer 344, females, site: liver, lesion: hepatocellular adenoma + hepatoblastoma + hepatocellular carcinoma, dosed 66 weeks, study length 66 weeks", "result": 121, "unit": "mg/kg/day"}, {"measurement": "TD50", "setting": "rat, strain Fischer 344, females, site: liver, lesion: hepatocellular adenoma + hepatoblastoma + hepatocellular carcinoma, dosed 103 weeks, study length 104 weeks", "result": 40.1, "unit": "mg/kg/day"}, {"measurement": "TD50", "setting": "rat, strain Fischer 344, females, site: liver, lesion: hepatocellular adenoma + hepatocellular carcinoma, dosed 40 weeks, study length 66 weeks", "result": 121, "unit": "mg/kg/day"}, {"measurement": "TD50", "setting": "rat, strain Fischer 344, females, site: liver, lesion: hepatocellular adenoma + hepatocellular carcinoma, dosed 66 weeks, study length 66 weeks", "result": 121, "unit": "mg/kg/day"}, {"measurement": "TD50", "setting": "rat, strain Fischer 344, females, site: liver, lesion: hepatocellular adenoma + hepatocellular carcinoma, dosed 103 weeks, study length 104 weeks", "result": 40.1, "unit": "mg/kg/day"}, {"measurement": "TD50", "setting": "rat, strain Fischer 344, females, site: liver, lesion: hepatocellular adenoma, dosed 40 weeks, study length 66 weeks", "result": 191, "unit": "mg/kg/day"}, {"measurement": "TD50", "setting": "rat, strain Fischer 344, females, site: liver, lesion: hepatocellular adenoma, dosed 66 weeks, study length 66 weeks", "result": 219, "unit": "mg/kg/day"}, {"measurement": "TD50", "setting": "rat, strain Fischer 344, females, site: liver, lesion: hepatocellular adenoma, dosed 103 weeks, study length 104 weeks", "result": 53.9, "unit": "mg/kg/day"}, {"measurement": "TD50", "setting": "rat, strain Fischer 344, females, site: liver, lesion: hepatocellular carcinoma, dosed 40 weeks, study length 66 weeks", "result": 167, "unit": "mg/kg/day"}, {"measurement": "TD50", "setting": "rat, strain Fischer 344, females, site: liver, lesion: hepatocellular carcinoma, dosed 66 weeks, study length 66 weeks", "result": 124, "unit": "mg/kg/day"}, {"measurement": "TD50", "setting": "rat, strain Fischer 344, females, site: liver, lesion: hepatocellular carcinoma, dosed 103 weeks, study length 104 weeks", "result": 88.4, "unit": "mg/kg/day"}]}]}
